From ChEMBL document CHEMBL1201862, “PubChem BioAssay data set” (2004)
Calls of active or inactive are those of the source.

Assays:
[1] = biological target: DNA dC->dU-editing enzyme APOBEC-3A (Homo sapiens, UniProt P31941); assay: APOBEC3A DNA deaminase inhibitors, dose response, biochemical (AID 504722); format: functional
[2] = biological target: DNA dC->dU-editing enzyme APOBEC-3G (Homo sapiens, UniProt Q9HC16); assay: Dose Response confirmation of small molecule APOBEC3G DNA Deaminase Inhibitors via a fluorescence-based single-stranded DNA deaminase assay. [Related pubchem assays (depositor defined):AID493012, AID493028]; format: functional
[3] = biological target: T1, Carboxy-terminal domain RNA polymerase II polypeptide A small phosphatase 1 (Homo sapiens, UniProt Q9GZU7); assay: inhibitors of CTDSP1, concentration-response testing, biochemical assay, absorbance-based, actives from ultra-high-throughput screening (AID 540297); format: functional
T1 sequence (Q9GZU7 whole entry): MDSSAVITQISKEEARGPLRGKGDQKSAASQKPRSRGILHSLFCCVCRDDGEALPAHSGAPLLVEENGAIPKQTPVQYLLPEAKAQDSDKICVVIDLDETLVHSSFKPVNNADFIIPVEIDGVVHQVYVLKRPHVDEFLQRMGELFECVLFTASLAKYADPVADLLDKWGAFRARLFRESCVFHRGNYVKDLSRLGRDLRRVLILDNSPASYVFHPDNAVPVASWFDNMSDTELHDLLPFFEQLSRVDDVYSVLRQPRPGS

[4] = biological target: T2, Probable nicotinate-nucleotide adenylyltransferase (Staphylococcus aureus (strain N315), UniProt P65502); format: functional, Staphylococcus aureus subsp. aureus N315;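 as to IC50 Mean: confirmatory dose-response retesting of NadD inhibitor hits first found in an ultra-high-throughput screen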
[5] = biological target: T2, Probable nicotinate-nucleotide adenylyltransferase; format: functional, Staphylococcus aureus subsp. aureus N315; conditions: read-out: IC50_Mean
[6] = biological target: T3, RNA-binding protein pos-1 (Caenorhabditis elegans, UniProt G5EF15); assay: inhibitors of POS-1/mex-3 RNA binding, dose response, biochemical, fluorescence polarization (AID 1964);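 also: purified POS-1 fused to maltose binding protein made in E. coli; potency of compounds blocking POS-1 binding to fluorescent RNA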
T3 sequence (G5EF15 whole entry): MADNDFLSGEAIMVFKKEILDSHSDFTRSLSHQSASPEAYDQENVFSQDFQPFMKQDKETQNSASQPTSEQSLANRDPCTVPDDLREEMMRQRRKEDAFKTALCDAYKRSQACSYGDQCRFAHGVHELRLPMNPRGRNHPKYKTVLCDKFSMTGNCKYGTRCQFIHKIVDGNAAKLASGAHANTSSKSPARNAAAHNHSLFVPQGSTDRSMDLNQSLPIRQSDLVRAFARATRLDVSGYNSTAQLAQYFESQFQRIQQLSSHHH

[7] = biological target: T4, Zinc finger protein mex-5 (Caenorhabditis elegans, UniProt Q9XUB2); assay: MEX-5/TCR-2 RNA interaction inhibitors, dose response, biochemical, C. elegans, fluorescence polarization (AID 1960)
T4 sequence (Q9XUB2 whole entry): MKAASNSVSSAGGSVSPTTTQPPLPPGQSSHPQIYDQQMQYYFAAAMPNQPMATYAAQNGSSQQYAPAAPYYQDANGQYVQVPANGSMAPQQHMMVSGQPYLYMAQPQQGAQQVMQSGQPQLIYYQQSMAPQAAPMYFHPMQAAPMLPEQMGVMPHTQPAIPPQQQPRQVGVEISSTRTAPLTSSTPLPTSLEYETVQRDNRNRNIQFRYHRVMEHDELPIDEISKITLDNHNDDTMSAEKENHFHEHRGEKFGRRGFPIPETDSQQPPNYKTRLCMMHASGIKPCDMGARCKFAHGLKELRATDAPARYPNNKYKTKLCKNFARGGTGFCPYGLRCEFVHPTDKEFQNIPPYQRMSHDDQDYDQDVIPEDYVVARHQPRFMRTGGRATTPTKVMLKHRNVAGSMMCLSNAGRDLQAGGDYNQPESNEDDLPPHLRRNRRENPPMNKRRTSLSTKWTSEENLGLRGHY

[8] = biological target: G-protein coupled receptor 55 (Homo sapiens, UniProt Q9Y2T6); assay: GPR55 antagonists blocking LPI-driven arrestin recruitment, primary screen, imaging, U2OS, beta-arrestin-GFP, LPI agonist (AID 2013); format: functional;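 also: antagonist potency measured as reduced agonist-driven arrestin aggregation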
[9] = test system: Streptococcus sp. 'group A'; assay: growth inhibition of control SK(-) GAS strain, dose response, counter-screen for streptokinase expression inhibitor project, luminescence, kanamycin, BacTiterGlo, confirmation (AID 1900); format: functional, organism-based
Aspartyl aminopeptidase = biological target: T5, Aspartyl aminopeptidase (Plasmodium falciparum 3D7, UniProt Q8I2J3)
T5 sequence (Q8I2J3 whole entry): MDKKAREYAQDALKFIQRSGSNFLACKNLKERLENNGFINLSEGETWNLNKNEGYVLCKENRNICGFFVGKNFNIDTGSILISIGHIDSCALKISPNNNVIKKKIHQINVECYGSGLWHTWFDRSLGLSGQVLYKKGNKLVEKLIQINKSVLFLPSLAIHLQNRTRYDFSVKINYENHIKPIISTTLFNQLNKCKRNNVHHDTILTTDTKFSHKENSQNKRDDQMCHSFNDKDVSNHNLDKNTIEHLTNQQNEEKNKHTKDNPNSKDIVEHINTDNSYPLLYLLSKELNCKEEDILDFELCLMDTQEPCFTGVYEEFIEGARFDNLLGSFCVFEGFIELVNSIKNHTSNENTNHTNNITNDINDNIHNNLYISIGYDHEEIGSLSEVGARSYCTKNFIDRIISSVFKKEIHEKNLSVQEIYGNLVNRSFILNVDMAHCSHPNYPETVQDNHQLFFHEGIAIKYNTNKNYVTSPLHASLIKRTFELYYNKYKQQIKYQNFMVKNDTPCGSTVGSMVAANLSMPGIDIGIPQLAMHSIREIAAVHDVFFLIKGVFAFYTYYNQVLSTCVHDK

Procathepsin L = Procathepsin L (Homo sapiens, UniProt P07711)
Streptokinase A = biological target: T6, Streptokinase A (Streptococcus pyogenes serotype M1, UniProt P10520); assay: S. pyogenes streptokinase expression inhibitors, potency, dose response, plasminogen activation absorbance, OD405 (AID 1914); format: functional, Streptococcus pyogenes M1 GAS;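 also: secreted streptokinase activity via plasminogen activation per viability signal from cell pellet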
T6 sequence (P10520 whole entry): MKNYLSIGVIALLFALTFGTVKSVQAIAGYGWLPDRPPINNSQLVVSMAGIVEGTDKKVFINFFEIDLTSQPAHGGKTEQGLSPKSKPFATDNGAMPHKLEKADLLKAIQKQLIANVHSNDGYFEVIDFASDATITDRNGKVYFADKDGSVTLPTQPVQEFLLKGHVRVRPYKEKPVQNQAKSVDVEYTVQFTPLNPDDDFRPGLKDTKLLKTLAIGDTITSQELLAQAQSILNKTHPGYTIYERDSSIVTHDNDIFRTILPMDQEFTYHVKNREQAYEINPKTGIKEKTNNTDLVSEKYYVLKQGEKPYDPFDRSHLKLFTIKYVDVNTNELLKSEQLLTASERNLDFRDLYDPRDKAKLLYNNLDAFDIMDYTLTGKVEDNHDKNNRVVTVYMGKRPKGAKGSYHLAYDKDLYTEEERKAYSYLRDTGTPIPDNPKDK

Large T antigen = Large T antigen (Simian virus 40, UniProt P03070); format: functional, Betapolyomavirus macacae;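 also: Confirmatory-stage PubChem screen for compounds that inhibit SV40 T antigen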
[10] = inhibitors of intracellular T. cruzi replication, confirmation, NIH3T3 host cells, beta-gal luminescence (AID 2044); format: functional, cell-based;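 also: intracellular parasites grown in NIH/3T3 mouse fibroblasts as host cells; luminescent beta-galactosidase reporter signal from transgenic T. cruzi replicating inside host cells; inhibitors lower the luminescence signal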
[11] = cytotoxicity toward NIH3T3 fibroblasts, dose response, counter-screen, cell-based, ATP luminescence, mouse fibroblasts (AID 2010); format: functional;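 also: cells exposed to compound for about 90 hours before reading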
Streptococcus = assay: Group A Streptococcus viability loss, dose response, counter-screen for streptokinase expression inhibitor project, luminescence, BacTiterGlo (AID 1915); format: functional, organism-based;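 also: potency for reduction of bacterial viability or growth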
[12] = biological target: Neurotensin receptor type 1 (Homo sapiens, UniProt P30989); format: functional;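 also: Image-based confirmatory dose-response assay measuring agonist activity at NTR1; NTR1-expressing U2OS osteosarcoma cells imaged for beta-arrestin GFP spot formation; agonist potency where compounds increase beta-arrestin recruitment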
[13] = A cytotoxicity screen of small molecule inhibitors of the PhoP region in Salmonella typhi identified in the primary screen. [Related pubchem assays: 1850, 1864, 1985 ]; format: functional
[14] = biological target: Induced myeloid leukemia cell differentiation protein Mcl-1 (Homo sapiens, UniProt Q07820); format: functional
[15] = cytotoxicity in HEK-293T cells, dose response, cytotoxicity control for BCR NF-kB inhibitor project, luminescence, B-cell screen hits (AID 489021); format: functional, cell-based;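 also: HEK-293T cells carrying an NF-kB luciferase reporter; cells exposed to compound for about 14 hours before viability readout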
[16] = biological target: Voltage-dependent T-type calcium channel subunit alpha-1H (Homo sapiens, UniProt O95180); format: functional;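 also: channel activity triggered by adding a high calcium stimulation buffer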
Genome polyprotein = Genome polyprotein (dengue virus type 2, UniProt P29990); assay: Dengue-2 NS5 methyltransferase inhibitors, primary screen, biochemical, confirmation dose response (AID 588689); format: functional
Leucine aminopeptidase = biological target: T7, Leucine aminopeptidase (Plasmodium falciparum 3D7, UniProt Q8IL11); assay: P. falciparum M17LAP inhibitors, primary screen, biochemical, fluorogenic H-Leu-NHMec substrate, 1536-well (AID 1619); format: functional
T7 sequence (Q8IL11 whole entry): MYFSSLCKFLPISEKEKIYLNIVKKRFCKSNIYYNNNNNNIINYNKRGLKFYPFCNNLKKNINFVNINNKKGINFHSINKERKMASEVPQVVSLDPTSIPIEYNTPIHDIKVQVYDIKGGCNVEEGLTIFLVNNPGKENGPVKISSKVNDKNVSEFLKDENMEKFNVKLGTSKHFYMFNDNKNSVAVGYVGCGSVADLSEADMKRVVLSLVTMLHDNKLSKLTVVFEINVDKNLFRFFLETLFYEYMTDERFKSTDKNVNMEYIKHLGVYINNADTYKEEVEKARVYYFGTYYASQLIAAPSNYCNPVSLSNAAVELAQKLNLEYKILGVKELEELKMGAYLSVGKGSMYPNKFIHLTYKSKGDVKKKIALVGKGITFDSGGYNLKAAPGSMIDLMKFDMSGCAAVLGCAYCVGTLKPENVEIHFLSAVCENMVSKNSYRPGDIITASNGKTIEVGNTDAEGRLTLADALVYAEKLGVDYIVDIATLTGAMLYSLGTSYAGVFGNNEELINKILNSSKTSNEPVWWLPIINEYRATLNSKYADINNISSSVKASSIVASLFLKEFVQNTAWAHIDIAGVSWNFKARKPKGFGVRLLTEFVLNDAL

Fatty acid synthase [17] = biological target: T8, Fatty acid synthase (Homo sapiens, UniProt P49327); assay: FAS thioesterase domain inhibitors, dose response, biochemical, endpoint fluorescence intensity, uHTS hits (AID 624327); format: functional;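 also: fluorescence from hydrolysis of an O-methyl fluorescein acyl ester substrate by the enzyme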
Fatty acid synthase [18] = biological target: T8, Fatty acid synthase; assay: FAS thioesterase domain inhibitors, dose response, biochemical, kinetic fluorescence intensity (AID 624326); format: functional;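 also: rate of fluorescence rise from hydrolysis of a fluorogenic O-methyl fluorescein ester substrate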
Caspase-6 = biological target: T9, Caspase-6 (Homo sapiens, UniProt P55212); assay: human caspase-6 inhibitors, dose response, biochemical, VEID-R110 fluorescence, cherry-pick (AID 720632)
T9 sequence (P55212 whole entry): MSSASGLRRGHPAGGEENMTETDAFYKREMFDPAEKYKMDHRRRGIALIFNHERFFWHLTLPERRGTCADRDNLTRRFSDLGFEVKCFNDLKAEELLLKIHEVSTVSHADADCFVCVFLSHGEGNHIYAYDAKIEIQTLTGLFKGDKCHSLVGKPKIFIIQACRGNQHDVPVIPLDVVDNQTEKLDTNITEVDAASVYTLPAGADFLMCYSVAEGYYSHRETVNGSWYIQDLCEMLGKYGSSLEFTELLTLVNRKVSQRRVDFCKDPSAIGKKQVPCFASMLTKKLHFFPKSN

Sequence of DNA dC->dU-editing enzyme APOBEC-3A (P31941 whole entry): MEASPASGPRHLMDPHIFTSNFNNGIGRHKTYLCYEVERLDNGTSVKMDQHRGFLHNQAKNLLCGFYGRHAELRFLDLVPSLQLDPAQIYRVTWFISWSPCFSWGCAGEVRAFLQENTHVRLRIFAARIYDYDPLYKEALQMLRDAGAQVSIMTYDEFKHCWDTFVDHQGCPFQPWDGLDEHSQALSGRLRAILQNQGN
Sequence of DNA dC->dU-editing enzyme APOBEC-3G (Q9HC16 whole entry, the tested form may be a part): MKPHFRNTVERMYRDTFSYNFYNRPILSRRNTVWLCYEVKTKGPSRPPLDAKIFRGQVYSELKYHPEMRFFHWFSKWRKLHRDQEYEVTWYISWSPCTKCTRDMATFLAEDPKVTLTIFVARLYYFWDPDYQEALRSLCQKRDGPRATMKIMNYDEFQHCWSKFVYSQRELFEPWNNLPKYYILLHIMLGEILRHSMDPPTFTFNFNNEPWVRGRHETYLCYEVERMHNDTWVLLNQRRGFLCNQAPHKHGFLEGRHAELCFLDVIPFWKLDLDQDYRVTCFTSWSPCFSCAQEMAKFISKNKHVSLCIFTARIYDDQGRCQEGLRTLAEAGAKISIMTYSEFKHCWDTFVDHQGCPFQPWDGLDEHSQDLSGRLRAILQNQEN
Sequence of G-protein coupled receptor 55 (Q9Y2T6 whole entry): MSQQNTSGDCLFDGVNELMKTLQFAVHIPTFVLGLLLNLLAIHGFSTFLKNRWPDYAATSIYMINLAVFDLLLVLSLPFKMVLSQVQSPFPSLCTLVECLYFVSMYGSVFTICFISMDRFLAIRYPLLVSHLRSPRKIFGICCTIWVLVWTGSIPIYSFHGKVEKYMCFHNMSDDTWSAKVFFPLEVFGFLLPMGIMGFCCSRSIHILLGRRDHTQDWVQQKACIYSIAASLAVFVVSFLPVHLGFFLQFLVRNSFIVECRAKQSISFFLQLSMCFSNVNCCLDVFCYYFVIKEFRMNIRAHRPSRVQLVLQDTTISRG
T2 sequence (P65502 whole entry): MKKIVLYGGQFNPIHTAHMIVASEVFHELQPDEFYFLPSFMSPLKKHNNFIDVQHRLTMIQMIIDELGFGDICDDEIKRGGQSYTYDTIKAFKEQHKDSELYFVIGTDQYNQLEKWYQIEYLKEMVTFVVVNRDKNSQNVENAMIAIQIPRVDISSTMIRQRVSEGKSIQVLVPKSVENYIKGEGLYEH
Sequence of Induced myeloid leukemia cell differentiation protein Mcl-1 (Q07820 whole entry): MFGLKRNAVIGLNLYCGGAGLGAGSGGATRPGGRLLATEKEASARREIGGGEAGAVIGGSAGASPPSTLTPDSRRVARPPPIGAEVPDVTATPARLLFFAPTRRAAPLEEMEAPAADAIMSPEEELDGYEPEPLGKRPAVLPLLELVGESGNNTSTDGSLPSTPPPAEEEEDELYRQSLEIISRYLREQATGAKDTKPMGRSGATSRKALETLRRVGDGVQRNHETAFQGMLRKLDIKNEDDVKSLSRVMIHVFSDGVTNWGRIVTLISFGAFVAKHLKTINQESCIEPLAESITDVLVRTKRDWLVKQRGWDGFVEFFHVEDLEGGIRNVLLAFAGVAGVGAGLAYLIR
Sequence of Voltage-dependent T-type calcium channel subunit alpha-1H (O95180 whole entry): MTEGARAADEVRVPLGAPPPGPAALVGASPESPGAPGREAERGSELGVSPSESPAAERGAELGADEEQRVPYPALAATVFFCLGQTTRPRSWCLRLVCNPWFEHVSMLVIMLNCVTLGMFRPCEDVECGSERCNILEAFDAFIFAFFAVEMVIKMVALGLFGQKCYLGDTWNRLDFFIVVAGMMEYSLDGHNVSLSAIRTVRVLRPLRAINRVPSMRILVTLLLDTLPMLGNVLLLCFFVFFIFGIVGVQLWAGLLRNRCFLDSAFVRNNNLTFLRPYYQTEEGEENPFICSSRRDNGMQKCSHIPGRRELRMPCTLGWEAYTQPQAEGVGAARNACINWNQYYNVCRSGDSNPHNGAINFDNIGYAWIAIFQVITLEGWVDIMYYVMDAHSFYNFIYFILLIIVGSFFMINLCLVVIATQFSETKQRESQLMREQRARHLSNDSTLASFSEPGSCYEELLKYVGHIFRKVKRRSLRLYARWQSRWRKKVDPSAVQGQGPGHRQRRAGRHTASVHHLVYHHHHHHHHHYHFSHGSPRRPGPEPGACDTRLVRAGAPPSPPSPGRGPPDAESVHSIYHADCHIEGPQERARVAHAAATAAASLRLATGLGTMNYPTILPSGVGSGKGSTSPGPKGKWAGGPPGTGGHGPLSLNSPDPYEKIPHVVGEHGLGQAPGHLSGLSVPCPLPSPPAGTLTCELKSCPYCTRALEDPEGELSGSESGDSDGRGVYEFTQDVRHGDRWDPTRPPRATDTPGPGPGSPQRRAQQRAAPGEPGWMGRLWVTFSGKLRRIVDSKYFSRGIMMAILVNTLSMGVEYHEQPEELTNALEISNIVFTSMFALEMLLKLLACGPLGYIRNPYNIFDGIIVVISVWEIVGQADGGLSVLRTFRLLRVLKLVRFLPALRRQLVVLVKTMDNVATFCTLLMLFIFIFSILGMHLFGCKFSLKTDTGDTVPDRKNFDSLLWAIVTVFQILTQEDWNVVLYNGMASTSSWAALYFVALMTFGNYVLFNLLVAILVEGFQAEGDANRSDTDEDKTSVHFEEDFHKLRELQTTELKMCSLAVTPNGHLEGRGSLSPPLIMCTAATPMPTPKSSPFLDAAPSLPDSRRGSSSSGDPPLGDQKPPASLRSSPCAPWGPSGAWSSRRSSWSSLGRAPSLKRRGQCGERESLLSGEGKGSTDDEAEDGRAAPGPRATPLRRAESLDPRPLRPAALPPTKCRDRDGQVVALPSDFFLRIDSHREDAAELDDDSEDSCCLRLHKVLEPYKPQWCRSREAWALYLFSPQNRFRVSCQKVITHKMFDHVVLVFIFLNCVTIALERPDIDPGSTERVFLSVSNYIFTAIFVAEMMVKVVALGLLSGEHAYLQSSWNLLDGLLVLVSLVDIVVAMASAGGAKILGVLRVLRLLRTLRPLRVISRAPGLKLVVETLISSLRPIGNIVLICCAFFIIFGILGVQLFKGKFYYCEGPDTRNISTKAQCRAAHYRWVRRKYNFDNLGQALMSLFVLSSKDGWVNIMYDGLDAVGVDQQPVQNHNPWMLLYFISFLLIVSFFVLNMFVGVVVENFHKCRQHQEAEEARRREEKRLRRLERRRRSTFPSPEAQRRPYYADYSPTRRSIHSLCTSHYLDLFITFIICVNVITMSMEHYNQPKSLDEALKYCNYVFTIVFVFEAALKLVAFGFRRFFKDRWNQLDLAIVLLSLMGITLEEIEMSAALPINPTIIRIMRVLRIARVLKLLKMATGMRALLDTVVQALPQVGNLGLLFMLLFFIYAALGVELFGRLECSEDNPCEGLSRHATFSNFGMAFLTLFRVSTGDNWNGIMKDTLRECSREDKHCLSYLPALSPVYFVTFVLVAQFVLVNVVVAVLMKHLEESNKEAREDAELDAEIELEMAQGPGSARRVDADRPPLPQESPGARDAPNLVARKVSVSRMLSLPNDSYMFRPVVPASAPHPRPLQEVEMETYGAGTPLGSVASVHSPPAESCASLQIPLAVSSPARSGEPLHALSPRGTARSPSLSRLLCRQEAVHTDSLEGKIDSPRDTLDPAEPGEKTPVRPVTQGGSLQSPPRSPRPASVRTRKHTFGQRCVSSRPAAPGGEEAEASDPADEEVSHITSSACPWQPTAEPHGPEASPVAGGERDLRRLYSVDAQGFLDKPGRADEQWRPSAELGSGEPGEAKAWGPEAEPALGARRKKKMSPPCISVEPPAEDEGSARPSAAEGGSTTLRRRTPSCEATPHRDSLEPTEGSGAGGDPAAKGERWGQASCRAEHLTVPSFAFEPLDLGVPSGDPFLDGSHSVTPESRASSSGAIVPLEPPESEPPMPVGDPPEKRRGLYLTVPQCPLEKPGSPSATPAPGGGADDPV
Sequence of Large T antigen (P03070 whole entry): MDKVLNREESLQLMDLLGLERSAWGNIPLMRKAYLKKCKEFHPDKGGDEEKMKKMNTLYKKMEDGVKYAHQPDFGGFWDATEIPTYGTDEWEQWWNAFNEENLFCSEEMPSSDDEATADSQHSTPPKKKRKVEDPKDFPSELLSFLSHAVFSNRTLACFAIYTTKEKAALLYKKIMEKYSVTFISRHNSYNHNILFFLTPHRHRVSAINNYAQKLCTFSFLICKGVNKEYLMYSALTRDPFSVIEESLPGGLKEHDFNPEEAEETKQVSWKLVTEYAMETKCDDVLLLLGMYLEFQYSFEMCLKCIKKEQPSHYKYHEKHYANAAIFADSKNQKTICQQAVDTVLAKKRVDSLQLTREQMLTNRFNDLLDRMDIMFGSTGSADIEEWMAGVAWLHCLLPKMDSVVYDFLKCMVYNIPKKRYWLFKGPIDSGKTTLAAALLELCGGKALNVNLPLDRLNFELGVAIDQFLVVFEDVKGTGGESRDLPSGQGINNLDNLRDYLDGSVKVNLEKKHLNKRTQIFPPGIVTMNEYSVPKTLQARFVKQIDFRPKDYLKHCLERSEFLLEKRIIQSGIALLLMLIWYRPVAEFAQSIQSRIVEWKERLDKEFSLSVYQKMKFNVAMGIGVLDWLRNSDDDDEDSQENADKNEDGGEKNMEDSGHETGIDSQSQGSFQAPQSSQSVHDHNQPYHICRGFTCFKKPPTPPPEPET
Sequence of Procathepsin L (P07711 whole entry): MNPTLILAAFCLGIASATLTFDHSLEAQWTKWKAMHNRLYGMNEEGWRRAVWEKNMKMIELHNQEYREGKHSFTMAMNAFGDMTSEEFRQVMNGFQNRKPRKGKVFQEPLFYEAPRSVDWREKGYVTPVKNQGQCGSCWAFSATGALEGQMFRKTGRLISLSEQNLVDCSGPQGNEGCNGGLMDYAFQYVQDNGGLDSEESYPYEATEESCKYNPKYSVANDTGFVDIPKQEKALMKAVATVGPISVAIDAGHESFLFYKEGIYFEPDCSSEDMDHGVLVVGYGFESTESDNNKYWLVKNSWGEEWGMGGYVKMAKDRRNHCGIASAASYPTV

CCN(CC)C(=O)CSc1ncnc2c(-c3cccs3)nsc12
IC50 [1]: 61.2 µM (active) | IC50 [2]: 17.8 µM (active) | IC50 [3]: 3.16 µM (active) | IC50 [4]: 12.9 µM (active) | IC50 [5]: 37.6 µM (active)

COc1ccc(N2C(=O)NC(=O)/C(=C\c3c[nH]c4ccc(Br)cc34)C2=O)c(OC)c1
EC50 [6]: > 300 µM (inconclusive) | EC50 [7]: > 300 µM (inconclusive) | IC50 [8]: 1.66 µM (active)

O=c1c2c([N+](=O)[O-])cc([N+](=O)[O-])cc2sn1Cc1ccccc1
EC50 [9]: 4.35 µM (active) | IC50 (Aspartyl aminopeptidase): > 0.101 µM (active) | IC50 (Procathepsin L): > 59.6 µM (not active) | EC50 (Streptokinase A): > 150 µM (not active) | IC50 (Large T antigen): 13.1 µM (active) | EC50 [10]: 1.77 µM (active) | EC50 [11]: 16.9 µM (active) | EC50 (Streptococcus): 16.1 µM (active) | IC50 [2]: 4.16 µM (active)

CCOc1ccc(Br)cc1S(=O)(=O)Nc1ccccc1N1CCOCC1
EC50 [12]: > 40 µM (inactive)

Cc1ccc(C)c2nc(O)c(CN(Cc3cccnc3)C(S)=NCc3ccco3)cc12
EC50 [13]: > 50 µM (active)

CC(C)Oc1ccc(C(=O)Nc2ccc(N(C)C)cc2)cc1
IC50 (Large T antigen): 25.3 µM (active) | IC50 [14]: 4.48 µM (not active) | IC50 [15]: > 80 µM (inactive)

Sc1nnc(COc2ccccc2)n1/N=C/c1cccnc1
IC50 [1]: > 100 µM (inactive) | IC50 [2]: 3.71 µM (active)

O=C(CSc1nnc(-c2cccs2)n1Cc1ccccc1)NCc1ccc2c(c1)OCO2
EC50 [16]: 10.2 µM (active)

CCN(CC)c1ccc(/C=N/N=C(c2ccccc2)c2ccccc2)c(O)c1
IC50 [15]: > 80 µM (inactive)

COc1ccc(S(=O)(=O)CC(=O)c2cc3cc(Br)ccc3oc2=O)cc1
IC50 [8]: 2.11 µM (active) | IC50 (Genome polyprotein): > 100 µM (active)

C=CCOc1c(OC)cc(/C=N/Nc2cccc(C(=O)O)c2)c(Br)c1Br
IC50 (Leucine aminopeptidase): < 1 µM (active) | IC50 [8]: 2.92 µM (active) | IC50 [14]: 5.84 µM (not active) | IC50 (Fatty acid synthase [17]): 3.82 µM (active) | IC50 (Fatty acid synthase [18]): 3.06 µM (active) | AC50 (Caspase-6): 19.2 µM (active)

COc1cc(OC)c(/C=N/NC(N)=S)cc1Br
IC50 [15]: > 80 µM (inactive)

O=C(NCc1ccccc1)C(c1ccccc1)N(Cc1ccc2c(c1)OCO2)C(=O)Cc1cccs1 (centres undefined)
EC50 [16]: 5.37 µM (active)

C=CCn1c(S)nnc1CSc1nc2ccccc2s1
IC50 [1]: > 100 µM (inactive) | IC50 [2]: 3.29 µM (active)

COc1ccc(NC(=O)Cn2c(=O)oc3cc(S(=O)(=O)N4CCCC4)ccc32)c(OC)c1
EC50 [13]: > 50 µM (active)
